Literature values in publication PMC8147660 (The Prostate, 2018).

What was measured:
[1] = biological target: PSA; conditions: read-out: PSA Ki; described in previous studies
[2] = biological target: chymotrypsin; conditions: read-out: Ki for chymotrypsin; described in previous studies
[3] = cleared via A2M-receptor/LRP in the liver

| Substance | Ki [1] [nM] | Ki [2] [nM] | Plasma half-life of the complex [3] |
| --- | --- | --- | --- |
| Ahx-FSQn(boro)Bpg | 72 | 580 | – |
| PSA-A2M: PSA complexed with the serum protease inhibitor alpha-2-macroglobulin | – | – | a few minutes |
